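Growth conditions: 96-well plates. Treatment: test compound, 48 hours, 5 concentrations. Analysis: linear interpolation between bracketing concentrations; unreached endpoints set to highest concentration. TGI marks complete inhibition of growth.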
Legend:
Test in all cases: DTP human tumour cell line panel, 48 h
[1] = system: MDA-N
[2] = system: RXF 393 renal
[3] = system: SF-268 CNS
[4] = system: OVCAR-8 ovarian
[5] = system: SK-MEL-28 melanoma
[6] = system: MCF7 breast
[7] = system: NCI-H522 lung
[8] = system: NCI-H226 lung
[9] = system: CAKI-1 renal
[10] = system: IGROV1 ovarian

| SMILES | TGI [1] | TGI [2] | TGI [3] | TGI [4] | TGI [5] | TGI [6] | TGI [7] | TGI [8] | TGI [9] | TGI [10] |
| --- | --- | --- | --- | --- | --- | --- | --- | --- | --- | --- |
| O=C(CCCN1CCC2(CC1)CC(=O)N(N1CCOCC1)C2=O)c1ccccc1 | > 100 µM | > 100 µM | > 100 µM | > 100 µM | > 100 µM | > 100 µM | > 100 µM | > 100 µM | > 100 µM | > 100 µM |
| CCN(CCO)CC1COc2ccccc2O1 (stereo not drawn) | > 100 µM | > 100 µM | > 100 µM | > 100 µM | > 100 µM | > 100 µM | > 100 µM | > 100 µM | > 100 µM | > 100 µM |
| COc1ccc2cc3c4cc5c(cc4cc[n+]3cc2c1OC)OCO5 | 28.5 µM | > 69.6 µM | 18.5 µM | > 94.8 µM | 19.4 µM | > 96.2 µM | 21.5 µM | > 100 µM | > 100 µM | > 32.7 µM |
| Oc1ccccc1/C=N/c1nc2cc3sc(/N=C/c4ccccc4O)nc3cc2s1 | > 100 µM | > 85.3 µM | > 100 µM | > 100 µM | > 100 µM | > 100 µM | > 100 µM | 98.5 µM | > 100 µM | > 100 µM |
| COc1cc(NS(C)(=O)=O)ccc1N1Cc2cnc3ccc4[nH]c(C)cc1c4c23 | 47.7 µM | > 100 µM | 63.4 µM | > 100 µM | > 100 µM | > 100 µM | 80.7 µM | > 100 µM | 74.5 µM | > 100 µM |
| COc1ccc(C(OCC2OC(n3cc(C)c(=O)[nH]c3=O)CC2n2cc(Cn3cc(F)c(=O)[nH]c3=O)nn2)(c2ccccc2)c2ccccc2)cc1 (stereo not drawn) | 3.53 µM | 49.6 µM | 35 µM | > 100 µM | 24.9 µM | 34.7 µM | 21.5 µM | 36.7 µM | 25 µM | 36.4 µM |
| CC(O)C1CC1(CO)CNc1cc(Cl)nc(N)n1 (stereo not drawn) | > 100 µM | > 100 µM | > 100 µM | > 100 µM | > 100 µM | > 100 µM | > 100 µM | > 100 µM | > 100 µM | > 100 µM |
| CSc1c(C#N)c(N)n2c1C(=O)N(c1ccccc1)C2=S | > 100 µM | > 100 µM | > 100 µM | > 100 µM | > 100 µM | > 100 µM | 57.7 µM | > 100 µM | > 100 µM | > 100 µM |
| C=C[C@@H]1C(CO)=CCC2[C@H]1CCC1C(C)(C)C(=O)CC[C@]21C (stereo partly drawn) | > 100 µM | > 100 µM | > 100 µM |  | > 100 µM | > 100 µM | > 100 µM | > 100 µM | > 100 µM | > 100 µM |
| O=C(NCCCN(CCCCN(CCCNC(=O)C(F)(F)F)Cc1ccccc1)Cc1ccccc1)C(F)(F)F | 29.1 µM | 32.6 µM | 25 µM | 26.9 µM | 25.1 µM | 24.7 µM | 22.3 µM | 34.4 µM | 26.4 µM | 26.2 µM |
| CC1CC[C@@]2(OC1)OC1C[C@H]3[C@@H]4CC[C@H]5CC(OC6OC(CO)C(OC7OC(CO)C(O)C(O)C7OC7OC(CO)C(O)C(O)C7O)C(O)C6O)CCC5(C)[C@H]4CCC3(C)C1[C@@H]2C (stereo partly drawn) | 9.31 µM | 2.76 µM | 8.77 µM | 14.3 µM | 8.32 µM | 2.26 µM | 5.19 µM | 3.37 µM | 10.6 µM | 2.15 µM |
| CCOc1cc(C2CC(c3ccc(NS(=O)(=O)c4cc([N+](=O)[O-])ccc4C)cc3)=NN2C(=O)c2ccccc2)ccc1O (stereo not drawn) | 70.6 µM | 42.6 µM | > 100 µM | > 100 µM | > 100 µM | > 100 µM | 64.5 µM | > 100 µM | > 100 µM | > 100 µM |
| CC(C)/C(Cl)=N\OC(=O)Nc1ccc(C#N)cc1 | 17.3 µM | 8.01 µM | 36.7 µM | 31 µM | 25 µM | 22.4 µM | 3.21 µM | 27.2 µM | 10.3 µM | 32.7 µM |
| CCOC(=N)n1c(=O)n(C2=NCCN2)c2ccccc21 | > 100 µM | > 100 µM | > 100 µM | > 100 µM | > 100 µM | > 100 µM | > 100 µM | > 100 µM | > 100 µM | > 100 µM |
| Nc1c(-c2cccc3ccccc23)c2ccc([N+](=O)[O-])cc2c(=O)n1-c1nc2ccccc2s1 | > 31.6 µM | > 31.3 µM | > 31.7 µM | 10.5 µM | > 100 µM | 7.84 µM | 6.86 µM | 16.3 µM | > 31.6 µM | > 100 µM |
| Cc1csc(-c2cn(C)c3c2C(=O)C(N)=CC3=O)n1 | 45.2 µM | > 100 µM | > 100 µM | > 100 µM | > 100 µM | > 100 µM | > 100 µM | > 80.1 µM | > 64.4 µM | 13.4 µM |
| CN(C)CCCN1C(=S)N(CCCN(C)C)c2c3cc(O)ccc3nc3c([N+](=O)[O-])ccc1c23 | 34.9 µM | 15.1 µM | 7 µM | 15 µM | 10.8 µM | 6.77 µM | 9.93 µM | 13.7 µM | 15 µM | 7 µM |

| SMILES | TGI [1] | TGI [2] | TGI [3] | TGI [4] | TGI [5] | TGI [6] | TGI [7] | TGI [8] | TGI [9] | TGI [10] |
| --- | --- | --- | --- | --- | --- | --- | --- | --- | --- | --- |
| C=CCn1c(=O)ccn(COCCO)c1=O | > 100 µM | > 100 µM | > 100 µM | > 100 µM | > 100 µM | > 100 µM | > 100 µM | > 100 µM | > 100 µM | > 100 µM |
| NNC(=O)c1ccc[n+](CCc2ccccc2)c1 | > 100 µM | > 100 µM | > 100 µM | > 100 µM | > 100 µM | > 100 µM | > 100 µM | > 100 µM | > 100 µM | > 100 µM |
| N#CC(C#N)=CNC(=S)c1ccncc1 | > 100 µM | > 100 µM | > 100 µM | > 100 µM | > 100 µM | > 100 µM | > 100 µM | > 100 µM | > 100 µM | > 100 µM |
| CC1(C)N=C(C(N)=O)c2ncn(CCCO)c2N1 | > 100 µM | > 100 µM | > 100 µM | > 100 µM | > 100 µM | > 100 µM | > 100 µM | > 100 µM | > 100 µM | > 100 µM |
| O=c1c2cc3c(cc2[nH]c2ncccc12)OCO3 | > 10 µM | > 10 µM | > 10 µM | > 10 µM | > 10 µM | > 10 µM | > 10 µM | > 10 µM | > 10 µM | > 10 µM |
| CCN(CC)CCOc1ccc(N2C(=O)c3cc(OC)c(OC)cc3C2=O)cc1 | > 100 µM | > 100 µM | > 100 µM | > 100 µM | > 100 µM | > 100 µM | > 100 µM | > 100 µM | > 100 µM | > 100 µM |
| CC(C)COP(=O)(OCC(C)C)C(NS(=O)(=O)c1ccccc1)(C(F)(F)F)C(F)(F)F | 20.6 µM | 21.1 µM | 34.7 µM | 25.5 µM | 37.1 µM | > 100 µM | 17.4 µM | 39.9 µM | 18.6 µM | 16.8 µM |
| C/C=C/C=C/c1nc(C#N)c(N)o1 | > 100 µM | > 100 µM | > 100 µM | > 100 µM | > 100 µM | > 100 µM | > 100 µM | > 100 µM | > 100 µM | > 100 µM |
| CCCn1c(CN(Cc2nc3ccccc3n2CCC)Cc2nc3ccccc3n2CCC)nc2ccccc21 | 25.1 µM | 8.96 µM | 27.9 µM | > 100 µM | 38.1 µM | > 29.2 µM | > 59.9 µM | 27.3 µM | > 29 µM | 16.7 µM |
| CN(C)c1nc(=NCc2ccccc2)ss1 | > 10 µM | > 10 µM | > 10 µM | > 10 µM | > 10 µM | > 10 µM | > 10 µM | > 10 µM | > 10 µM | > 10 µM |
| C=CC[C@]12C[C@@H](C(=O)OC)N(C(=O)OC)[C@H]1N(S(=O)(=O)c1ccccc1)c1ccccc12 | > 100 µM | 66.9 µM | > 100 µM | > 100 µM | > 100 µM | > 100 µM | > 100 µM | > 100 µM | > 100 µM | > 100 µM |
| CC12CC(=O)C3C(C(=O)C1)C32C (stereo not drawn) | > 100 µM | > 100 µM | > 100 µM | > 100 µM | > 100 µM | > 100 µM | > 100 µM | > 100 µM | > 100 µM | > 100 µM |
| Cc1ccccc1C(O)(c1nccn1C)c1nccn1C | > 100 µM | > 100 µM | > 100 µM | > 100 µM | > 100 µM | > 100 µM | > 100 µM | > 100 µM | > 100 µM | > 100 µM |
| N#C/C(=C\c1cc(Br)c(O)c(Br)c1)c1cccnc1 | > 100 µM | > 100 µM | > 100 µM | > 100 µM | > 100 µM | > 100 µM | > 100 µM | 91.4 µM | > 100 µM | > 100 µM |
| CCN(C(=S)N[C@@H](Cc1ccccc1)C(=O)N[C@@H](CC(C)C)C(=O)OC)c1ccccc1 | > 100 µM | > 100 µM |  | > 100 µM | > 100 µM | > 100 µM | > 100 µM | > 100 µM | > 100 µM | > 100 µM |
| O=P(c1ccccc1)(c1ccccc1)N1O[C@@H](c2ccccc2)C=C[C@H]1c1ccccc1 | 12.7 µM | 22.9 µM | 26.2 µM | 32.7 µM | 38.3 µM | 12.6 µM | 24.5 µM | 29.4 µM | 22.4 µM | 28.9 µM |

— PubChem BioAssay (NCI)
